Consider 20 compounds from ChEMBL document CHEMBL6103654, “Design, Biological Characterization, and Discovery of Capromorelin Derivatives as Oral Growth Hormone Secretagogue Receptor Type 1a Agonist for the Treatment of Growth Hormone Deficiency” (J Med Chem, 2025).

A short description of data set [1]: Agonist activity at human GHSR expressed in CHO cells incubated for 60 min by FLIPR assay. The class given is cell-based. As to conditions: 1 h.
Data set [2] deals with CHO. The experiment in a line: Agonist activity at human GHSR expressed in CHO cells at maximum concentration incubated for 60 min by FLIPR assay relative to control. Format: cell-based.
Data set [3] can be described thus: Volume of distribution in male Sprague-Dawley rat at 1 mg/kg, iv administered as single dose measured after 4 hrs. Format: ADME, organism-based. The following applies: in vivo.
The nature of data set [4]: Agonist activity at dog GHSR expressed in CHO cells incubated for 60 min by FLIPR assay. The class given is cell-based. As to conditions: 1 h.
Data set [5] is described as follows: Agonist activity at monkey GHSR expressed in CHO cells incubated for 60 min by FLIPR assay. The following applies: Macaca mulatta, 1 h. Format: cell-based.
Data set [6] is described as follows: Elimination half life in male Sprague-Dawley rat at 2 mg/kg, po administered as single dose measured after 4 hrs. The class given is ADME, organism-based. The following applies: in vivo, read-out: beta t1/2 (converted).
Data set [7] in a line: Tmax in male Sprague-Dawley rat at 2 mg/kg, po administered as single dose measured after 4 hrs. Format: ADME, organism-based. As to conditions: in vivo.
The target of data set [8] is Growth hormone secretagogue receptor type 1 (Rattus norvegicus, UniProt O08725). The data set is described as follows: Agonist activity at rat GHSR expressed in CHO cells incubated for 60 min by FLIPR assay. The class given is functional, cell-based.
In data set [9] the test system is CHO. The data set is described as follows: Agonist activity at dog GHSR expressed in CHO cells at maximum concentration incubated for 60 min by FLIPR assay relative to control. The following applies: Canis lupus familiaris, filed as agonist. The class given is cell-based.
The nature of data set [10]: Elimination half life in male Sprague-Dawley rat at 1 mg/kg, iv administered as single dose measured after 4 hrs. As to conditions: in vivo, read-out: beta t1/2 (converted). The class given is ADME, organism-based.
Data set [11] is described as follows: Oral bioavailability in male Sprague-Dawley rat at 2 mg/kg administered as single dose measured after 4 hrs. Format: ADME, organism-based. As to conditions: in vivo.
Data set [12] can be described thus: AUC in male Sprague-Dawley rat at 2 mg/kg, po administered as single dose measured after 4 hrs. The class given is ADME, organism-based. As to conditions: in vivo.
Data set [13] is described as follows: Clearance in male Sprague-Dawley rat plasma at 1 mg/kg, iv administered as single dose measured after 4 hrs. Format: ADME, organism-based.
A short description of data set [14]: Cmax in male Sprague-Dawley rat at 2 mg/kg, po administered as single dose measured after 4 hrs. The class given is ADME, organism-based. The following applies: in vivo.
For data set [15], the system named is CHO. The experiment in a line: Agonist activity at monkey GHSR expressed in CHO cells at maximum concentration incubated for 60 min by FLIPR assay relative to control. The class given is cell-based. The following applies: Macaca mulatta, filed as agonist.
The target of data set [16] is Growth hormone secretagogue receptor type 1 (Rattus norvegicus) (UniProt O08725). The data set is described as follows: Agonist activity at rat GHSR expressed in CHO cells at maximum concentration incubated for 60 min by FLIPR assay relative to control. Format: functional, cell-based. The following applies: filed as agonist.
Sequence of Growth hormone secretagogue receptor type 1 (Rattus norvegicus) (O08725 whole entry): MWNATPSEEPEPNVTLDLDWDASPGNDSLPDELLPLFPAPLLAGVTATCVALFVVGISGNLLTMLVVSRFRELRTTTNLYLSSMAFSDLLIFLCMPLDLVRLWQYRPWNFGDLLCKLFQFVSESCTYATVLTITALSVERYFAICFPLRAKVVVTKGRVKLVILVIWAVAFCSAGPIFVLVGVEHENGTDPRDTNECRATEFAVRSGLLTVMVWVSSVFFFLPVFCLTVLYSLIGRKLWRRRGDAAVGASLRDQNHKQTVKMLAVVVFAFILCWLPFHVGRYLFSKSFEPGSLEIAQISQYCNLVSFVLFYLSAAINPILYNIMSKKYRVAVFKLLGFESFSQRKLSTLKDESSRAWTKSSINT

Sequence of Growth hormone secretagogue receptor type 1 (O08725 whole entry): as above

The compound `CC(C)(N)C(=O)N[C@H](COCc1ccccc1)C(=O)N1CCC2=NN(C3COC3)C(=O)[C@]2(Cc2ccccc2)C1` returned an EC50 in data set [1] of 14.7 nM. In addition, the Activity in the data set with CHO [2] (filed as agonist) turned out to be 99.2%.

With `CC(C)(N)C(=O)N[C@H](COCc1ccccc1)C(=O)N1CCC2=NN(C(F)F)C(=O)[C@]2(Cc2ccccc2)C1`, in data set [1], the EC50 is over 1000 nM. This compound had an Activity with CHO [2] of 11%.

In the case of `CC(C)(N)C(=O)N[C@H](COCc1ccccc1)C(=O)N1CCC2=NN(C(F)(F)F)C(=O)[C@]2(Cc2ccccc2)C1`, the EC50 in data set [1] was 0.58 nM; in data set [4], 0.077 nM; in data set [5], 0.062 nM; in [8], 0.012 nM. Further, the Vd in data set [3] is 16.1 L/kg. The figures for the half-life in [6] and in [10] were 1.2 h and 2.96 h, respectively. The Tmax in [7] turned out to be 0.33 h. Also, the Activity with CHO [9] was 115%; with CHO [2] (filed as agonist) it was 106%; in the data set with CHO [15], 103%; in data set [16], 96%. In data set [11], the bioavailability came out at 44.8%. The AUC at 4 h in data set [12] came to 214 ng·h/mL. Also, the clearance in data set [13] turned out to be 70.9 mL/min/kg. The concentration in [14] peaked (Cmax) at 219 ng/mL.

As to `CC1N(C(=O)[C@@H](COCc2ccccc2)NC(=O)C(C)(C)N)CCC2=NN(C)C(=O)[C@@]21Cc1ccccc1` (stereo partly drawn), the EC50 in data set [1] was determined as 160 nM. Moreover, the Activity in the data set on CHO [2] (filed as agonist) worked out at 97.4%.

Take `CN1N=C2CCN(C(=O)[C@@H](COCc3ccccc3)NC(=O)C3CCNCC3)C[C@@]2(Cc2ccccc2)C1=O`: the EC50 in data set [1] is over 1000 nM; in [4], 143 nM; in [5], 102 nM; in data set [8], 39.3 nM. Besides, the Activity with CHO [9] was found to be 91.6%; with CHO [2] it was 30.5%; in the data set with CHO [15] it was 94.9%; in data set [16] it was 106%.

As for `CC(C)(N)C(=O)N[C@H](COCc1ccccc1)C(=O)N1CCC2=NN(C(C)(C)C)C(=O)[C@]2(Cc2ccccc2)C1`, the EC50 in [1] was found to be 1.34 nM; in [4] it was 0.071 nM; in data set [5], 0.044 nM; in [8] it was 0.016 nM. Moreover, the Activity in the data set on CHO [9] came out at 123%; in the data set on CHO [2] (filed as agonist) it was 143%; with CHO [15], 99.3%; in data set [16], 112%.

Consider `CN1N=C2C(C)(C)CN(C(=O)[C@@H](COCc3ccccc3)NC(=O)C(C)(C)N)C[C@@]2(Cc2ccccc2)C1=O`, for which the half-maximal effective concentration (EC50) in data set [1] was found to be 63.7 nM. In addition, the Activity with CHO [2] (filed as agonist) was 82.2%.

In data set [1], `Cn1nc2c(c1-c1ccccc1)CN(C(=O)[C@@H](COCc1ccccc1)NC(=O)C(C)(C)N)CC2` had a half-maximal effective concentration (EC50) of 72.4 nM. Besides, the Activity with CHO [2] (filed as agonist) came out at 72%.

Turning to `CC(C)(N)C(=O)N[C@H](COCc1ccccc1)C(=O)N1CCC2=NN(C3CCCC3)C(=O)[C@]2(Cc2ccccc2)C1`, the EC50 came to 0.58 nM in data set [1], 0.105 nM in data set [4], 0.051 nM in data set [5] and 0.021 nM in data set [8]. Moreover, the Activity in the data set on CHO [9] worked out at 117%; in the data set with CHO [2] (filed as agonist) it was 121%; in the data set with CHO [15], 110%; in [16], 97.2%.

`CC(C)(N)C(=O)N[C@H](COCc1ccccc1)C(=O)N1CCc2ccn(Cc3ccccc3)c2C1` showed an EC50 in data set [1] of 735 nM. In the data set on CHO [2] (filed as agonist), this compound showed an Activity of 47.6%.

Consider `CN1N=C2CCN(C(=O)[C@@H](COCc3ccccc3)NC(=O)C(C)(C)N)C[C@@]2(Cc2ccccc2)C1=O` [CAPROMORELIN], for which the EC50 turned out to be 1.37 nM in data set [1], 0.118 nM in data set [4], 0.074 nM in data set [5] and 0.017 nM in [8]. Also, the Activity in the data set with CHO [9] is 155%; with CHO [2] (filed as agonist), 119%; in the data set with CHO [15] it was 109%; in data set [16], 111%.

In the case of `CC(C)(N)C(=O)N[C@H](COCc1ccccc1)C(=O)N1CCC2=NN(C3CCCCC3)C(=O)[C@]2(Cc2ccccc2)C1`, the 50% effective concentration (EC50) in [1] turned out to be 2.63 nM. The compound also came in with an Activity in the data set on CHO [2] (filed as agonist) of 137%.

In [1], `CC(C)(N)C(=O)N[C@H](COCc1ccccc1)C(=O)N1C2CCC1[C@@]1(Cc3ccccc3)C(=O)NN=C1C2` (stereo partly drawn) returned an EC50 of 447 nM. Moreover, the Activity in the data set with CHO [2] (filed as agonist) stood at 41.7%.

`CN1N=C2CC3CCC(N3C(=O)[C@@H](COCc3ccccc3)NC(=O)C(C)(C)N)[C@@]2(Cc2ccccc2)C1=O` (stereo partly drawn) returned an EC50 in [1] of 10.4 nM. Besides, the Activity with CHO [2] (filed as agonist) turned out to be 104%.

As for `Cn1nc2c(c1-c1ccccc1)CCN(C(=O)[C@@H](COCc1ccccc1)NC(=O)C(C)(C)N)C2`, the EC50 in data set [1] was over 1000 nM. The compound also displayed an Activity in the data set with CHO [2] of 18.2%.

`CC(C)(N)C(=O)N[C@H](COCc1ccccc1)C(=O)N1CCC2=NN(C3CCC3)C(=O)[C@]2(Cc2ccccc2)C1`: the EC50 in [1] stood at 1.19 nM; in data set [4], 0.048 nM; in data set [5] it was 0.02 nM; in [8], 0.014 nM. Besides, the volume of distribution (Vd) in data set [3] worked out at 3.5 L/kg. Besides, the results for the half-life in [6] and in data set [10] were 1.82 h and 0.8 h, respectively. Moreover, the Tmax in data set [7] was 0.5 h. Further, the Activity with CHO [9] was determined as 125%; in the data set on CHO [2] (filed as agonist) it was 107%; in the data set with CHO [15] it was 104%; in data set [16], 104%. The compound further came in with a bioavailability in data set [11] of 3.3%. Moreover, in data set [12], the exposure (AUC) at 4 h is 21.1 ng·h/mL. Also, the clearance in [13] is 50.5 mL/min/kg. In data set [14], this compound came in with a Cmax of 8.4 ng/mL.

With `CC(C)(N)C(=O)N[C@H](COCc1ccccc1)C(=O)N1CCC2=NOC(=O)[C@]2(Cc2ccccc2)C1`, the EC50 in data set [1] is 0.87 nM. The Vd in data set [3] was determined as 22.8 L/kg. In data set [7], the Tmax came out at 0.25 h. The half-life in [10] was 1.44 h. The Activity in the data set on CHO [2] (filed as agonist) came to 106%. Besides, the clearance in data set [13] came out at 169 mL/min/kg. In data set [14], this compound registered a Cmax of 54 ng/mL.

For `CN1N=C2C3(CC3)CN(C(=O)[C@@H](COCc3ccccc3)NC(=O)C(C)(C)N)C[C@@]2(Cc2ccccc2)C1=O`, the EC50 in data set [1] is 29.8 nM. Moreover, in the data set with CHO [2] (filed as agonist), the Activity was 82.1%.

Consider `CC(C)(N)C(=O)N[C@H](COCc1ccccc1)C(=O)N1CCC2=NN(CC3CC3)C(=O)[C@]2(Cc2ccccc2)C1`, for which the EC50 in [1] was determined as 0.89 nM; in data set [4] it was 0.043 nM; in [5], 0.034 nM; in [8], 0.009 nM. In addition, the Activity in the data set on CHO [9] came to 120%; in the data set with CHO [2] (filed as agonist), 134%; in the data set on CHO [15], 104%; in [16], 97.1%.

In turn, `CC(C)(N)C(=O)N[C@H](COCc1ccccc1)C(=O)N1CC(C)(C)C2=NNC(=O)[C@]2(Cc2ccccc2)C1` yielded an EC50 in data set [1] of 53.3 nM. For the same compound, the Activity in the data set on CHO [2] amounted to 25.4%.

By EC50 is commonly meant the concentration that produces a half-maximal response. Usually Vd stands for the apparent volume that relates the amount in the body to the concentration in plasma or blood. The Tmax is the time from dosing to the highest level. One may read the bioavailability as the share of a dose that reaches the circulation, judged against a reference dose that is usually intravenous. Broadly, the AUC is concentration integrated over time. A word on the clearance: it is the volume of plasma or blood freed of the substance per unit of time. The Cmax is the peak of the concentration-time curve.
